Measured values published in patent EP1585727B1, “INDOLES USEFUL IN THE TREATMENT OF ANDROGEN-RECEPTOR RELATED DISEASES” (priority 2002, dated 2004).
Counter-ions that a name gives are not always drawn.

target: T1, human androgen receptor (Homo sapiens, UniProt P10275); experiment: Androgen receptor transactivation assay, antiandrogenic activity: inhibition of transactivation in the presence of 1 nM DHT (CHO-AR-pMMTV-LUC cells; Table 4); format: cell-based; conditions: antiandrogenic activity, in the presence of 1 nM DHT; read-out: ant EC50
T1 construct: expressed in transfected cells; host or cells: Chinese hamster ovary (CHO) cells, cell line CHO-AR-pMMTV-LUC 1G12-A5-CA
T1 sequence (P10275 1-920): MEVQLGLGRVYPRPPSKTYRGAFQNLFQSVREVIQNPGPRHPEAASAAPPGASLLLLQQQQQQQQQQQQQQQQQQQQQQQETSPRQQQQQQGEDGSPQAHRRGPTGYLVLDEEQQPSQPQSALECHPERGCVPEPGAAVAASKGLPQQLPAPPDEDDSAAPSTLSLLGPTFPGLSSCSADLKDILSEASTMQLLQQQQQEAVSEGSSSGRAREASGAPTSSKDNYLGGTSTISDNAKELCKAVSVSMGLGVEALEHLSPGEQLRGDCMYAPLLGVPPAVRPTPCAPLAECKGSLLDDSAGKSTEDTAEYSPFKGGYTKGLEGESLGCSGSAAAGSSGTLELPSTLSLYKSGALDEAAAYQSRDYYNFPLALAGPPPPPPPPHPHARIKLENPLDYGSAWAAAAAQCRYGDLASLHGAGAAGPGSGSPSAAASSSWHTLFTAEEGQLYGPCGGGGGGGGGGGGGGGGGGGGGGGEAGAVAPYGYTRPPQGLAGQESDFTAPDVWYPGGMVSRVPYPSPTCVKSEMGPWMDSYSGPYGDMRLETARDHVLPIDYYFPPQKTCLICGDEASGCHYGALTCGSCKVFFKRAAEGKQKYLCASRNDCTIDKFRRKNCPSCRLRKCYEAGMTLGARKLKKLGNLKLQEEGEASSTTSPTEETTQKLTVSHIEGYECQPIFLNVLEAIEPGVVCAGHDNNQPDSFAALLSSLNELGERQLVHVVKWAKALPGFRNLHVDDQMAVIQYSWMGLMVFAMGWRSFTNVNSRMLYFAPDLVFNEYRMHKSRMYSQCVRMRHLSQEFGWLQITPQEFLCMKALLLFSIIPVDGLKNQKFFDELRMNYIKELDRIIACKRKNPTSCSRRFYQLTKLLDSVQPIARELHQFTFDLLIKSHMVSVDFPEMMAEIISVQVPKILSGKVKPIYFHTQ
Procedure: Compounds were tested for their Androgen Receptor activity in a transactivation assay and in a binding assay.
The (anti-)androgenic activity of test compounds (EC50 and intrinsic activity) was determined in an in vitro bioassay of Chinese hamster ovary (CHO) cells stably transfected with the human androgen receptor expression plasmid and a reporter plasmid in which the MMTV-promoter is linked to the luciferase reporter gene. The cell-line CHO-AR-pMMTV-LUC 1G12-AS-CA is described in Schoonen et al. (2000), Journal of Steroid Biochemistry and Molecular Biology 74(4):213-222. The antiandrogenic activity of a test compound was determined by the inhibition of the transactivation via the androgen receptor of the enzyme luciferase in the presence of 1 nM DHT (5 α-dihydrotestosterone, 17β-hydroxy-5α-androstan-3-one). Intrinsic activity of antiandrogenic activity was determined in the presence of the reference antiandrogen 2-Hydroxy-2-methyl-N-(4-nitro-3-trifluoromethyl-phenyl)-propionamide (Hydroxyflutamide), and set at 100%. For androgenic activity, maximal intrinsic activity in the presence of 100 nM DHT was set at 100%. Table 4 Androgen receptor activity

Row | EC50 [µM] | Structure (SMILES)
1 | > 10 | O=[N+]([O-])c1ccccc1Sc1cn(Cc2cc(F)cc(F)c2)c2cc(O)ccc12 [Compound 61, 1-(3,5-Difluoro-benzyl)-3-(2-nitro-phenylsulfanyl)-1H-indol-6-ol]

same assay, conditions: in the presence of 1 nM DHT; intrinsic activity relative to reference antiandrogen Hydroxyflutamide (set at 100%); read-out: ant efficacy

Row | Structure (SMILES) | Emax [%]
2 | Nc1ccc2c(Sc3ccccc3[N+](=O)[O-])cn(Cc3cc(F)cc(F)c3)c2c1 [Compound 57, 1-(3,5-Difluoro-benzyl)-3-(2-nitro-phenylsulfanyl)-1H-indol-6-ylamine] | < 20
3 | COc1ccc2c([S+]([O-])c3ccccc3[N+](=O)[O-])cn(Cc3cc(F)cc(F)c3)c2c1 (centres unmarked) [Compound 64, 1-(3,5-Difluoro-benzyl)-6-methoxy-3-(2-nitro-benzenesulfinyl)-1H-indole] | 50 to 80
4 | O=C(NC1CC1)c1ccc2c(Sc3ccccc3[N+](=O)[O-])cn(Cc3cc(F)cc(F)c3)c2c1 [Compound 44] | < 20
5 | O=C(Nc1ccc2c(Sc3ccccc3[N+](=O)[O-])cn(Cc3cc(F)cc(F)c3)c2c1)C(F)(F)F [Compound 59, N-[1-(3,5-Difluoro-benzyl)-3-(2-nitro-phenylsulfanyl)-1H-indol-6-yl]-2,2,2-trifluoroacetamide] | < 20
6 | O=C(c1ccc2c(Sc3ccccc3[N+](=O)[O-])cn(Cc3cc(F)cc(F)c3)c2c1)N1CCCC1 [Compound 27] | < 20
7 | COc1ccc2c(Sc3ccccc3[N+](=O)[O-])cn(Cc3cccc(F)c3)c2c1 [Compound 71] | < 20
8 | O=[N+]([O-])c1ccccc1Sc1cn(Cc2cc(F)cc(F)c2)c2cc(CO)ccc12 [Compound 24] | < 20
9 | COc1ccc2c(Sc3ccccc3[N+](=O)[O-])cn(Cc3ccc(C)cc3)c2c1 [Compound 85] | 20 to 50
10 | O=[N+]([O-])c1ccccc1Sc1cn(Cc2cc(F)cc(F)c2)c2ccc(F)cc12 [Compound 53] | < 20
11 | Cc1cccc2c1c(Sc1ccccc1[N+](=O)[O-])cn2Cc1cc(F)cc(F)c1 [Compound 55] | < 20
12 | CN(C)C(=O)CNC(=O)c1ccc2c(Sc3ccccc3[N+](=O)[O-])cn(Cc3cc(F)cc(F)c3)c2c1 [Compound 40] | < 20
13 | O=[N+]([O-])c1ccccc1Sc1cn(Cc2cc(F)cc(F)c2)c2cc(F)ccc12 [Compound 50] | < 20
14 | COc1ccc2c(c1)c(Sc1ccccc1[N+](=O)[O-])cn2Cc1ccccc1 [Compound 91] | > 80
15 | COc1ccc2c(Sc3ccccc3[N+](=O)[O-])cn(Cc3ccc(Cl)c(Cl)c3)c2c1 [Compound 14] | < 20
16 | COc1ccc2c(Sc3ccccc3[N+](=O)[O-])cn(Cc3ccc(Cl)c(C(F)(F)F)c3)c2c1 [Compound 76] | < 20
17 | COc1ccc2c(Sc3ccccc3[N+](=O)[O-])cn(Cc3ccc(C#N)cc3)c2c1 [Compound 82] | < 20
18 | CNC(=O)c1ccccc1Sc1cn(Cc2cc(F)cc(F)c2)c2cc(OC)ccc12 [Compound 17, 2-[1-(3,5-Difluoro-benzyl)-6-methoxy-1H-indol-3-ylsulfanyl]-N-methyl-benzamide] | 50 to 80
19 | O=C(NCCO)c1ccc2c(Sc3ccccc3[N+](=O)[O-])cn(Cc3cc(F)cc(F)c3)c2c1 [Compound 37] | < 20
20 | COc1ccc2c(Sc3ccccc3[N+](=O)[O-])cn(Cc3cccc(C)c3)c2c1 [Compound 73] | < 20
21 | O=[N+]([O-])c1ccccc1Sc1cn(Cc2cc(F)cc(F)c2)c2cccc(Cl)c12 [Compound 54] | < 20

Row | Structure (SMILES) | Emax [%]
22 | COc1ccc2c(Sc3ccccc3[N+](=O)[O-])cn(Cc3cccc(C(F)(F)F)c3)c2c1 [Compound 78] | < 20
23 | COc1ccc2c(Sc3ccccc3[N+](=O)[O-])cn(Cc3ccccc3C(F)(F)F)c2c1 [Compound 12] | < 20
24 | COc1ccc2c(Sc3ccccc3[N+](=O)[O-])cn(Cc3cccc(Cl)c3)c2c1 [Compound 67] | < 20
25 | COC(=O)c1ccccc1Sc1cn(Cc2cc(F)cc(F)c2)c2cc(OC)ccc12 [Compound 19, 2-[1-(3,5-Difluoro-benzyl)-6-methoxy-1H-indol-3-ylsulfanyl]-benzoic acid methyl ester] | < 20
26 | COc1ccc(Cn2cc(Sc3ccccc3[N+](=O)[O-])c3ccc(OC)cc32)cc1 [Compound 84] | > 80
27 | COc1ccc2c(Sc3ccccc3[N+](=O)[O-])cn(Cc3cnc(Cl)s3)c2c1 [Compound 87] | < 20
28 | O=[N+]([O-])c1ccccc1Sc1cn(Cc2cc(F)cc(F)c2)c2cc(C(F)(F)F)ccc12 [Compound 23] | < 20
29 | CN1CCN(C(=O)c2ccc3c(Sc4ccccc4[N+](=O)[O-])cn(Cc4cc(F)cc(F)c4)c3c2)CC1 [Compound 29] | < 20
30 | COc1ccc2c(Sc3ccccc3[N+](=O)[O-])cn(Cc3cccc(C#N)c3)c2c1 [Compound 68] | < 20
31 | COc1ccc2c(Sc3ccccc3[N+](=O)[O-])cn(Cc3cccc(OC(F)(F)F)c3)c2c1 [Compound 77] | < 20
32 | COc1ccc2c(Sc3ccccc3[N+](=O)[O-])cn(Cc3ccccn3)c2c1 [Compound 10, 6-Methoxy-3-(2-nitro-phenylsulfanyl)-1-pyridin-2 ylmethyl-1H-indole monohydrochloride] | < 20
33 | O=[N+]([O-])c1ccccc1Sc1cn(Cc2cc(F)cc(F)c2)c2cc(O)ccc12 [Compound 61, 1-(3,5-Difluoro-benzyl)-3-(2-nitro-phenylsulfanyl)-1H-indol-6-ol] | < 20
34 | O=C(NCc1ccco1)c1ccc2c(Sc3ccccc3[N+](=O)[O-])cn(Cc3cc(F)cc(F)c3)c2c1 [Compound 34] | < 20
35 | O=C(NCc1cccnc1)c1ccc2c(Sc3ccccc3[N+](=O)[O-])cn(Cc3cc(F)cc(F)c3)c2c1 [Compound 35] | < 20
36 | COc1ccc2c(Sc3ccccc3[N+](=O)[O-])cn(Cc3cc(F)cc(F)c3)c2c1 [Compound 63, 1-(3,5-Difluoro-benzyl)-6-methoxy-3-(2-nitro-phenylsulfanyl)-1H-indole] | < 20
37 | COc1ccc2c(Sc3ccccc3[N+](=O)[O-])cn(Cc3ccccc3F)c2c1 [Compound 5] | < 20
38 | O=[N+]([O-])c1ccccc1Sc1cn(Cc2cc(F)cc(F)c2)c2cc(Br)ccc12 [Compound 22] | < 20
39 | COc1ccc2c(Sc3ccccc3[N+](=O)[O-])cn(Cc3cc(C)on3)c2c1 [Compound 13] | < 20
40 | CN(C)C(=O)c1ccc2c(Sc3ccccc3[N+](=O)[O-])cn(Cc3cc(F)cc(F)c3)c2c1 [Compound 49] | < 20

same assay, conditions: read-out: ant efficacy, in the presence of 1 nM DHT; intrinsic activity relative to reference antiandrogen Hydroxyflutamide (set at 100%)

Row | Structure (SMILES) | Emax [%]
41 | CCN(CC)C(=O)c1ccc2c(Sc3ccccc3[N+](=O)[O-])cn(Cc3cc(F)cc(F)c3)c2c1 [Compound 32] | 20 to 50
42 | COc1ccc2c(Sc3ccccc3[N+](=O)[O-])cn(CC3CCCCC3)c2c1 [Compound 89] | 20 to 50
43 | O=[N+]([O-])c1ccc2c(Sc3ccccc3[N+](=O)[O-])cn(Cc3cc(F)cc(F)c3)c2c1 [Compound 60] | < 20
44 | COc1ccc2c(Sc3ccccc3CO)cn(Cc3cc(F)cc(F)c3)c2c1 [Compound 16, {2-[1-(3,5-Difluoro-benzyl)-6-methoxy-1H-indol-3-ylsulfanyl]-phenyl}-methanol] | 20 to 50
45 | COc1ccc2c(Sc3ccccc3[N+](=O)[O-])cn(Cc3ccccn3)c2c1 [Compound 9, 6-Methoxy-3-(2-nitro-phenylsulfanyl)-1-pyridin-2-ylmethyl-1H-indole] | 20 to 50
46 | O=C(NCc1ccccc1)c1ccc2c(Sc3ccccc3[N+](=O)[O-])cn(Cc3cc(F)cc(F)c3)c2c1 [Compound 43] | 20 to 50
47 | COc1ccc2c(Sc3ccccc3[N+](=O)[O-])cn(CC3CCCCO3)c2c1 (centres unmarked) [Compound 11] | < 20
48 | COc1ccc2c(Sc3ccccc3[N+](=O)[O-])cn(Cc3cccc([N+](=O)[O-])c3C)c2c1 [Compound 6] | < 20
49 | COc1ccc2c(Sc3ccccc3[N+](=O)[O-])cn(Cc3ccccc3[N+](=O)[O-])c2c1 [Compound 8] | < 20
50 | COc1ccc2c(Sc3ccccc3[N+](=O)[O-])cn(Cc3cccc([N+](=O)[O-])c3)c2c1 [Compound 74] | < 20
